Source: ChEMBL document CHEMBL1130363, “Design and synthesis of hapten to induce phospholipase A2-like catalytic antibody” (Bioorg Med Chem Lett, 1997)

Target: T1, Lysosomal phospholipase A and acyltransferase (Homo sapiens, UniProt Q8NCC3)
T1 sequence (Q8NCC3 whole entry): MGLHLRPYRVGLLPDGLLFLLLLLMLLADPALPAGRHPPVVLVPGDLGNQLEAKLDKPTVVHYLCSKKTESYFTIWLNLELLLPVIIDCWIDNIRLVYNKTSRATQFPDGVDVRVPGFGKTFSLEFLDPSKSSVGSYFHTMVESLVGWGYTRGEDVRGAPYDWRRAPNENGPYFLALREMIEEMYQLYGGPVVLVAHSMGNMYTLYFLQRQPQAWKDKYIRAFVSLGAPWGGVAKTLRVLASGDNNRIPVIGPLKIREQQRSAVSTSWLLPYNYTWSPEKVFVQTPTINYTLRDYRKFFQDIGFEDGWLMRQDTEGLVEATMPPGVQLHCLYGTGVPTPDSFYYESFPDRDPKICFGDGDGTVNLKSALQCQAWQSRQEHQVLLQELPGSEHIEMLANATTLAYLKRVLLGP
Assay: Inhibitory activity against phospholipase A2 enzyme

For CCCCCCCCCCP(=O)(O)OC(COCCCCCCCCCC(=O)OC)COP(=O)([O-])OCC[N+](C)(C)C (stereo unspecified) [ESTER OF PHOSPHOLIPID], which IC50 is on record?
The IC50 was 9.75 mM.
